Data set [1] has as its system Rattus norvegicus. The experiment in a line: Ex vivo receptor occupancy of GHS-R1a in Sprague-Dawley rat hypothalamus at 10 mg/kg, po measured at 1 hr by liquid scintillation counting in presence of [His [125I]]-Ghrelin. The class given is functional.
Data set [2] deals with T1, Muscarinic acetylcholine receptor M2 (Homo sapiens, UniProt P08172).
T1 sequence (P08172 whole entry): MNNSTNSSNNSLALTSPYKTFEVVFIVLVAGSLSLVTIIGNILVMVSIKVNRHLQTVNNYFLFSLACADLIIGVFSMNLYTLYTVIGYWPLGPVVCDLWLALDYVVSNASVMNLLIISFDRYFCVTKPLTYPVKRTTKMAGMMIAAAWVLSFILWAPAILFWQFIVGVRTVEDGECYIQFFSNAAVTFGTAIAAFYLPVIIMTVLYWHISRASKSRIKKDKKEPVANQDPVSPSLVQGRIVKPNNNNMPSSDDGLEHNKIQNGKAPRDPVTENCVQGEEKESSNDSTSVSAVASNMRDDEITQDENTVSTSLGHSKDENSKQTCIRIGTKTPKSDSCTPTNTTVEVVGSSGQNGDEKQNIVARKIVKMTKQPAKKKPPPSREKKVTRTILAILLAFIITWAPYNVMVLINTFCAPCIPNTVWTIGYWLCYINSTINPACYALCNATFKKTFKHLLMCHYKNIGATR
The experiment in a line: Displacement of N-methyl [3H]-scopolamine from recombinant human muscarinic acetylcholine receptor M2 expressed in CHO cells after 2 hrs by liquid scintillation counting. The class given is cell-based. To be noted: for pKi: cho.

For data set [3], the target named is T2, Growth hormone secretagogue receptor type 1 (Homo sapiens, UniProt Q92847). The experiment in a line: Displacement of [125I]-ghrelin from human GHS-R1a expressed in tetracycline inducible HEK293 cells after 8 hrs by liquid scintillation counting. In kind it is cell-based. The conditions noted are these: for pKi: hek293. (Displacement assays read how much labelled ligand stays bound in the presence of the test substance.)
T2 sequence (Q92847 whole entry): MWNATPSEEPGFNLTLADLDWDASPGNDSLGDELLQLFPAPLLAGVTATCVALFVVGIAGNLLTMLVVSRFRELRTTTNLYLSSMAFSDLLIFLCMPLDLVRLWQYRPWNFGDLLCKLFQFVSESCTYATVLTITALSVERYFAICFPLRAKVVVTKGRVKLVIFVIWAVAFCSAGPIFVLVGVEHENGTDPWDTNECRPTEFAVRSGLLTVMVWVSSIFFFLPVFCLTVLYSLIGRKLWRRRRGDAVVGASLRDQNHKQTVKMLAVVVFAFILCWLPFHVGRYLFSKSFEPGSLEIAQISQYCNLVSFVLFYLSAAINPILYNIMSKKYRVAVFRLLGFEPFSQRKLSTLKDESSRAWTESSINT

In data set [4] the target is T2, Growth hormone secretagogue receptor type 1. The experiment in a line: Inverse agonist activity at human GHS-R1a expressed in tetracycline inducible HEK293 cells incubated for 24 hrs prior to europium-labeled GTP addition measured after 90 mins by DELFIA assay. In kind it is cell-based. On the set-up: Activity: concentration or dose not given beside the values.
In data set [5] the target is T1, Muscarinic acetylcholine receptor M2. The experiment in a line: Binding affinity to muscarinic acetylcholine receptor M2 (unknown origin).
Data set [6] in a line: Apparent intrinsic clearance in human liver microsomes. In kind it is ADME, Microsome. The conditions noted are these: read-out: CLH(app). (Microsomes from liver hold many membrane-bound enzymes, among them those of drug oxidation.)
The test system of data set [7] is human MDR1 (P-gp). The experiment in a line: Efflux ratio of permeability in MDCK cells expressing human MDR-1 gene. In kind it is ADME, cell-based, Canis lupus familiaris. The conditions noted are these: dog.

The structures appear in SMILES notation.

Take `COc1ccc(CC(=O)N2CCC3(CC2)CN([C@@H]2CCc4cc(-c5nccs5)ccc42)C3)nc1`: the Occ in data set [1] was found to be 35%. Further, in data set [2], the negative-log Ki (pKi) (in general, the Ki on a negative log10 scale, so that one unit is a factor of ten) is less than 4.25. In data set [3], affinity was put at a Ki of 0.00398 µM. Also, in data set [4], the Activity was 39% and the pKb – broadly, the negative decadic logarithm of the Kb, by convention in mol/L – was found to be 7.4.

As for `COCC(c1ccc(-c2ncccn2)cc1)N1CC2(CCN(C(=O)Cc3ccc(OC)cn3)CC2)C1` (configuration not stated), the Ki (as a rule, a dissociation constant, usually derived from enzyme kinetics or from competition with a known ligand) was 7.08 µM in data set [2] and 3.63 µM in data set [3].

With `COc1ccc(CC(=O)N2CCC3(CC2)CN([C@H](c2ccc(-c4ncccn4)cc2)C(C)C)C3)nc1`, the Ki in data set [2] was 0.912 µM. For the same molecule, the pKi in data set [3] is less than 4.68.

As for `COc1ccc(CC(=O)N2CCC3(CC2)CN([C@@H]2CCc4cc(-n5nccn5)ccc42)C3)nc1`, the Occ in data set [1] is 50%. Besides, the negative logarithm of the Ki (pKi) in data set [2] is less than 4.42. Further, in data set [4], the Activity was found to be 42% and the negative-log Kb (pKb) was 7.57.

Regarding `COc1ccc(CC(=O)N2CCC3(CC2)CN(C2CCc4cc(-c5nccs5)ccc42)C3)nc1` (configuration not stated), the Ki in data set [2] was 0.871 µM. Besides, in data set [3], the half-maximal inhibitory concentration (IC50) (as a rule, the concentration that inhibits the measured activity by half) was 0.0302 µM.

With `COc1ccc(CC(=O)N2CCC3(CC2)CN([C@@H]2CCc4cc(-c5ncccn5)ccc42)C3)cc1`, in data set [1], the Occ is 85%.

For the molecule `COc1ccc(CC(=O)N2CCC3(CC2)CN([C@@H](c2ccc(-c4ncccn4)cc2)C(C)C)C3)nc1`, the Ki in data set [2] is 0.0479 µM. Also, in data set [3], the negative-log Ki (pKi) is less than 4.53.

In the case of `COc1ccc(CC(=O)N2CCC3(CC2)CN([C@@H]2CCc4cc(-n5nccn5)ccc42)C3)cc1`, in data set [1], the Occ is reported as 74%. Also, the pKi in data set [2] is less than 4.26. Moreover, in data set [3], the affinity, expressed as Ki, was 0.00741 µM. Also, in data set [4], the Activity worked out at 21% and the negative logarithm of the Kb (pKb) was found to be 8.27.

As to `COc1ccc(CC(=O)N2CCC3(CC2)CN([C@H]2CCc4cc(-c5ncccn5)ccc42)C3)nc1`, the Ki in data set [2] was 0.407 µM. Also, the half-inhibitory concentration (IC50) in data set [3] was 1.1 µM.

On to `CCc1ccc(CC(=O)N2CCC3(CC2)CN([C@@H]2CCc4cc(-c5ncccn5)ccc42)C3)nc1`, for which the Occ in data set [1] amounted to 10%. Besides, in data set [2], the inhibition constant (Ki) was 28.2 µM. Moreover, the Ki in data set [3] was 0.0155 µM. In data set [4], the Activity is 22% and the pKb was 7.13.

For the molecule `COc1ccc(CC(=O)N2CCC3(CC2)CN([C@@H](C)c2ccc(-c4ncccn4)cc2)C3)nc1`, the Ki in data set [2] was 2.24 µM; in data set [3] it was 1.12 µM.

As for `COc1ccc(CC(=O)N2CCC3(CC2)CN([C@H]2CCc4cc(-c5nccs5)ccc42)C3)nc1`, the Ki in data set [2] was 1.55 µM; in data set [3], 1.38 µM.

On to `Cc1cn2cc(CC(=O)N3CCC4(CC3)CN(Cc3ccc(-n5nccn5)cc3Cl)C4)nc2s1`, for which, in data set [5], the inhibition constant Ki was 0.269 µM.

Consider `CCc1cnc(-c2ccc3c(c2)CC[C@H]3N2CC3(CCN(C(=O)Cc4ccc(OC)cn4)CC3)C2)nc1`, for which, in data set [1], the Occ was 64%. Also, in data set [2], the pKi is less than 4.17. In data set [4], this molecule returned an Activity of 29% and a negative logarithm of the Kb (pKb) of 7.37.

For `COc1ccc(CC(=O)N2CCC3(CC2)CN(C(c2ccc(-c4ncccn4)cc2)C(C)C)C3)nc1` (configuration not stated), the inhibition constant Ki in data set [2] was 0.151 µM. In addition, the pKi in data set [3] was less than 4.52.

For `CCc1ccc(CC(=O)N2CCC3(CC2)CN([C@@H]2CCc4cc(-n5nccn5)ccc42)C3)nc1`, the Occ in data set [1] was 74%. Further, the negative-log Ki (pKi) in data set [2] was less than 4.59. In addition, in data set [4], the Activity stood at 23% and the negative-log Kb (pKb) amounted to 7.38.

Turning to `COc1ccc(CC(=O)N2CCC3(CC2)CN(C(C)c2ccc(-c4ncccn4)cc2)C3)nc1` (configuration not stated), the Ki in data set [2] was 2.4 µM; in data set [3], 1.7 µM.

`Cc1ccc(CC(=O)N2CCC3(CC2)CN([C@@H]2CCc4cc(-n5nccn5)ccc42)C3)nc1`: in data set [1], the Occ was found to be 23%. Besides, the Ki in data set [2] was 21.9 µM. In data set [4], this molecule gave an Activity of 40% and a negative-log Kb (pKb) of 7.23.

`COc1ccc(CC(=O)N2CCC3(CC2)CN(Cc2ccc(-c4ncccn4)cc2Cl)C3)cc1`: in data set [2], the Ki is 1.95 µM. In data set [3], this molecule showed a 50% inhibitory concentration (IC50) of 0.0158 µM.

Regarding `COc1ccc(CC(=O)N2CCC3(CC2)CN([C@H](C)c2ccc(-c4ncccn4)cc2)C3)nc1`, the Ki in data set [2] was 20 µM; in data set [3], 25.1 µM.

In the case of `COc1ccc(CC(=O)N2CCC3(CC2)CN([C@@H]2CCc4cc(-c5ncc(C)cn5)ccc42)C3)nc1`, the Occ in data set [1] is 5%. Further, the pKi in data set [2] is less than 4.17. For the same molecule, in data set [4], the Activity was 40% and the pKb was determined as 7.07.

Turning to `COc1ccc(CC(=O)N2CCC3(CC2)CN(C2CCc4cc(-c5ncccn5)ccc42)C3)nc1` (racemic), the Ki in data set [2] is 1.62 µM. In addition, the IC50 in data set [3] is 0.0372 µM.

With `Cc1ccc(CC(=O)N2CCC3(CC2)CN([C@@H]2CCc4cc(-c5ncccn5)ccc42)C3)nc1`, the Occ in data set [1] turned out to be 0.2%. In addition, the microsomal CLint in data set [6] was determined as 22 µL/min/mg. In addition, the efflux ratio (commonly a quotient of directional permeabilities that is used to spot active efflux) in data set [7] amounted to 2. Moreover, in data set [2], the negative logarithm of the Ki (pKi) is less than 4.56. Besides, in data set [4], the Activity is 21% and the negative logarithm of the Kb (pKb) was found to be 6.98.

Regarding `COc1ccc(CC(=O)N2CCC3(CC2)CN([C@@H]2CCc4cc(-c5ncccn5)ccc42)C3)nc1`, the Occ in data set [1] amounted to 45%. For the same molecule, the Ki in data set [2] was 14.5 µM. Besides, the inhibition constant (Ki) in data set [3] was 0.0295 µM. Further, in data set [4], the Activity stood at 42% and the pKb came out at 7.6.

For the origin of these results see ChEMBL document CHEMBL2424611, “Identification of potent, selective, CNS-targeted inverse agonists of the ghrelin receptor” (Bioorg Med Chem Lett, 2013).
